Results from US10669272B2, “Substituted naphthyridinone compounds useful as T cell activators” (BRISTOL-MYERS SQUIBB COMPANY, priority 2018, dated 2020).
Like-named read-outs stand apart in the source and are kept apart here.

Assays:
human DGKα = biological target: T1, human DGKα (Homo sapiens, UniProt P23743); test: DGKα LIPGLO assay (extruded liposome substrate), in vitro DGK inhibition; type: biochemical; conditions: read-out: DGKa LIPGLO IC50
T1 construct: TVMV protease cleavage site (C); Hexa-His (C); made in house; host or cells: Sf9 insect cells (baculovirus, Bac-to-Bac)

human DGKζ = biological target: T2, human DGKζ (Homo sapiens, UniProt Q13574); test: DGKζ LIPGLO assay (extruded liposome substrate), in vitro DGK inhibition; type: biochemical; conditions: read-out: DGKz LIPGLO IC50
T2 construct: TVMV protease cleavage site (C); Hexa-His (C); made in house; host or cells: Sf9 insect cells (baculovirus, Bac-to-Bac)

naïve human CD8 T cells = test: Human CD8 T cells IFN-γ assay; type: cell-based; conditions: normalized to 3 μM reference compound with anti-CD3 plus anti-CD28 as 100% activation; read-out: HuCD8 INFG Normalized EC50;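 further: Naïve human CD8 T cells stimulated with plate-bound anti-CD3 and soluble anti-CD28, IFN-γ in supernatant quantified by AlphaLISA and converted to pg/mL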
Human venous whole blood = test: Human whole blood IFN-γ assay; type: cell-based; conditions: human whole blood, read-out: INFg Whole Blood Normalized Agonist EC50;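 further: blood from healthy donors exposed to compound for 1 h before stimulation with anti-CD3 and anti-CD28 at 1 µg/mL each, IFN-γ quantified in supernatant by AlphaLISA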
[1] = Homo sapiens, 24 h, normalized to 3 μM reference compound with anti-CD3 plus anti-CD28 as 100% activation
[2] = anti-CD3 plus anti-CD28, 24 hours, 3 μM reference compound = 100% activation
[3] = normalized to 3 μM reference compound with anti-CD3 plus anti-CD28 as 100% activation
[4] = Homo sapiens, 24 h, anti-CD3 plus anti-CD28, 24 hours, 3 μM reference compound = 100% activation

T2 sequence (Q13574 with tags, fused parts or gaps isoform Q13574-4): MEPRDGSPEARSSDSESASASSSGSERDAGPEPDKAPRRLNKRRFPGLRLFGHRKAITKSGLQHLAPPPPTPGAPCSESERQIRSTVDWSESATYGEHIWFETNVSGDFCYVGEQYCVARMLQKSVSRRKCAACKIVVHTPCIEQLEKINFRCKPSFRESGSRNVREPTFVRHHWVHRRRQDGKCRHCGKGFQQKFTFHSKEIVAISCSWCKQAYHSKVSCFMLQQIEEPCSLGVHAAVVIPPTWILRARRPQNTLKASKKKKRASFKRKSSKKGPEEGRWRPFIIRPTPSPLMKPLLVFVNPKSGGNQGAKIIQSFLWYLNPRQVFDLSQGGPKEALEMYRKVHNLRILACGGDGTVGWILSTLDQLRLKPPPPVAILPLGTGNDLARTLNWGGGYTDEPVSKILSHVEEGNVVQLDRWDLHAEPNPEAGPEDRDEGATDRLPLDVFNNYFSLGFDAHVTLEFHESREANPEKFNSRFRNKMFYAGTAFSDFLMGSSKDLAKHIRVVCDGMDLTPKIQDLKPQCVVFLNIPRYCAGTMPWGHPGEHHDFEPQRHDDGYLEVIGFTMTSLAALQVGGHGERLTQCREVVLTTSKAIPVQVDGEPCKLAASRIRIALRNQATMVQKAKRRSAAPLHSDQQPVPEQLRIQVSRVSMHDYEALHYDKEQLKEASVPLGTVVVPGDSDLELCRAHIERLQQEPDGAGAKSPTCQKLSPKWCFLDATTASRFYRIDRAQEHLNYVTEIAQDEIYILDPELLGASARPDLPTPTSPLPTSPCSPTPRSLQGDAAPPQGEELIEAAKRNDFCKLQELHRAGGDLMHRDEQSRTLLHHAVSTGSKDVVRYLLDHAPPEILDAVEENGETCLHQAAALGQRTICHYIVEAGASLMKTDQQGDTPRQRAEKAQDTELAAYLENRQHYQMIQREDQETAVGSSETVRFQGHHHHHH
T1 sequence (P23743 with tags, fused parts or gaps): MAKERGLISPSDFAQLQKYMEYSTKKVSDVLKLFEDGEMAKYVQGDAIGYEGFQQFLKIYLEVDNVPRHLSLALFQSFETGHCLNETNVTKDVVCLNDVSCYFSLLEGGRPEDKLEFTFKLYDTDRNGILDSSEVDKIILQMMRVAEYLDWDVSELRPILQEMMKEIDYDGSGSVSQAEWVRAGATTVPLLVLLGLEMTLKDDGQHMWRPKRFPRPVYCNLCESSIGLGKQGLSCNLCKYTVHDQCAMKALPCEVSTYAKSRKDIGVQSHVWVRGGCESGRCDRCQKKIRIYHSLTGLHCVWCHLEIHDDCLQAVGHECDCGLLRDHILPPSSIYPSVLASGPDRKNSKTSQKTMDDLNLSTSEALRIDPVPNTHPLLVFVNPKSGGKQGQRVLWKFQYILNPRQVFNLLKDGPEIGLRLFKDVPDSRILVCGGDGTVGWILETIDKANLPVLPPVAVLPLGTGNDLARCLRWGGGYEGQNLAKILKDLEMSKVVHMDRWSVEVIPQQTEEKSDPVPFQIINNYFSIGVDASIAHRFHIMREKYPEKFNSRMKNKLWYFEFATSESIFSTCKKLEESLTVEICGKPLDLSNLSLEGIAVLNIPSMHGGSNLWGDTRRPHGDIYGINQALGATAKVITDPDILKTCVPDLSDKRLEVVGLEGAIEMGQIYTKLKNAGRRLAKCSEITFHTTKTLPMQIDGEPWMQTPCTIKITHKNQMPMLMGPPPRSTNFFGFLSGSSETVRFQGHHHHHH

Row | Structure (SMILES) | IC50 (human DGKα; liposome (LIPGLO) assay) | IC50 (human DGKζ; liposome (LIPGLO) assay) | IC50 (human DGKα; DGKα liposome (LIPGLO) assay) | IC50 (human DGKζ; DGKζ liposome (LIPGLO) assay) | EC50 (Human venous whole blood; [3]) | further results
1 | COC(=O)C1CN(c2cc(=O)n(C)c3ccc(C#N)nc23)CCN1C(c1ccc(F)cc1)c1ccc(F)cc1OC (single isomer, unassigned) [Example 68, Methyl 4-(6-cyano-1-methyl-2-oxo-1,2-dihydro-1,5-naphthyridin-4-yl)-1-((4-fluoro-2-methoxyphenyl)(4-fluorophenyl)methyl)piperazine-2-carboxylate] | 18000 nM | 250 nM |  |  |  | EC50 (naïve human CD8 T cells): 11 nM
2 | Cn1c(=O)cc(N2CCN(C(c3ccc(F)cc3)c3ccc(F)cc3)CC2CO)c2nc(C#N)ccc21 (single isomer, unassigned) [Example 148, 8-(4-(bis(4-fluorophenyl)methyl)-2-(hydroxymethyl)piperazin-1-yl)-5-methyl-6-oxo-5,6-dihydro-1,5-naphthyridine-2-carbonitrile] | 240000 nM | 75000 nM |  |  |  | EC50 (naïve human CD8 T cells): 420 nM
3 | C[C@@H]1CN(c2c(C#N)c(=O)n(C)c3ccc(C#N)nc23)CCN1C(c1cccc(F)c1)c1ccc(C(F)(F)F)cn1 (single isomer, unassigned) [Example 948] |  |  | 600 nM | 310 nM |  | EC50 (Human venous whole blood; [2]): 340 nM
4 | C[C@@H]1CN(c2c(C#N)c(=O)n(C)c3ccc(C#N)nc23)CCN1C(c1ccc(F)cc1)c1ccc(C#N)cn1 (single isomer, unassigned) [Example 908] |  |  | 770 nM | 3900 nM |  | EC50 (Human venous whole blood; [2]): 1400 nM
5 | Cc1ccc(C(c2ccc(C#N)cc2)N2C[C@H](C)N(c3c(F)c(=O)n(C)c4ccc(C#N)nc34)C[C@H]2C)cc1 (stereo partly drawn) [Example 322, 8-((2S,5R)-4-((4-cyanophenyl)(p-tolyl)methyl)-2,5-dimethylpiperazin-1-yl)-7-fluoro-5-methyl-6-oxo-5,6-dihydro-1,5-naphthyridine-2-carbonitrile] | 2700 nM | 2200 nM |  |  |  | EC50 (Human venous whole blood; [1]): 2200 nM
6 | CC[C@H]1CN(C(c2ccc(F)cc2)c2ccc(C(F)(F)F)cn2)[C@H](C)CN1c1cc(=O)n(C)c2ccc(C#N)nc12 (single isomer, unassigned) [Example 1132] | 620 nM | 790 nM |  |  | 1600 nM | 
7 | C[C@@H]1CN(c2cc(=O)n(C)c3ccc(C#N)nc23)[C@@H](C)CN1Cc1ccc(OC(F)(F)F)cc1C#N [Example 581] | 1300 nM | 6700 nM |  |  |  | EC50 (Human venous whole blood; [1]): 2700 nM
8 | C[C@@H]1CN(c2c(C#N)c(=O)n(C)c3ccc(C#N)nc23)[C@@H](C)CN1C(c1ccc(F)cc1)c1cncn1C (stereo partly drawn) [Example 849] |  |  | > 250000 nM | 130000 nM |  | EC50 (Human venous whole blood; [2]): 20000 nM
9 | CCc1ccccc1C(c1ccc(F)cc1)N1CCN(c2c(C#N)c(=O)n(C)c3ccc(C#N)nc23)C[C@H]1C (stereo partly drawn) [Example 877] |  |  | 5100 nM | 240 nM |  | EC50 (Human venous whole blood; [2]): 6000 nM
10 | COC[C@@H]1CN(c2cc(=O)n(C)c3ccc(C#N)nc23)[C@@H](C)CN1Cc1cc(F)c(F)c(F)c1 [Example 1161] | 18000 nM | 330 nM |  |  |  | EC50 (Human venous whole blood; [1]): 15000 nM
11 | C[C@@H]1CN(c2c(C#N)c(=O)n(C)c3ccc(C#N)nc23)[C@@H](C)CN1C(c1ccc(F)cc1)c1ccc(C#N)cc1 (single isomer, unassigned) [Example 824] |  |  | 16000 nM | 11000 nM |  | EC50 (Human venous whole blood; [2]): 3200 nM
12 | Cc1cc(C(c2ccc(F)cc2)N2C[C@H](C)N(c3c(C#N)c(=O)n(C)c4ccc(C#N)nc34)C[C@H]2C)no1 (single isomer, unassigned) [Example 864] |  |  | 170 nM | 1000 nM |  | EC50 (Human venous whole blood; [4]): 6500 nM

Now from value to compound, other results behind:

Row | IC50 (human DGKα; liposome (LIPGLO) assay) | IC50 (human DGKζ; liposome (LIPGLO) assay) | IC50 (human DGKα; DGKα liposome (LIPGLO) assay) | IC50 (human DGKζ; DGKζ liposome (LIPGLO) assay) | Structure (SMILES) | EC50 (Human venous whole blood; [3]) | further results
13 | 13000 nM | 3400 nM |  |  | CC(c1ccc(C2CC2)cc1F)N1C[C@H](C)N(c2cc(=O)n(C)c3ccc(C#N)nc23)C[C@H]1C (single isomer, unassigned) [Example 1201] |  | EC50 (Human venous whole blood; [1]): 5600 nM
14 | 1400 nM | 2100 nM |  |  | CC(c1cc(C2CC2)on1)N1C[C@H](C)N(c2cc(=O)n(C)c3ccc(C#N)nc23)C[C@H]1C (single isomer, unassigned) [Example 1282] | 5200 nM | 
15 | 610 nM | 350 nM |  |  | CCC(c1ccc(OC(C)C)cc1)N1C[C@H](C)N(c2cc(=O)n(C)c3ccc(C#N)nc23)C[C@H]1C (single isomer, unassigned) [Example 1449] | 870 nM | 
16 | 990 nM | 1100 nM |  |  | CCC(c1ccc(OC(F)(F)F)cc1)N1C[C@H](C)N(c2cc(=O)n(C)c3ccc(C#N)nc23)C[C@H]1CC (single isomer, unassigned) [Example 1198] | 1700 nM | 
17 | 850 nM | 3700 nM |  |  | CC(C)c1ccc(CN2C[C@H](C)N(c3cc(=O)n(C)c4ccc(C#N)nc34)C[C@H]2C)cc1 [Example 602] |  | EC50 (Human venous whole blood; [1]): 1100 nM
18 |  |  | 8500 nM | 330 nM | C[C@@H]1CN(c2cc(=O)n(C)c3ccc(C#N)nc23)[C@@H](C)CN1C(c1ccc(F)cc1)c1cc(C(C)(C)C)on1 (single isomer, unassigned) [Example 731] |  | EC50 (Human venous whole blood; [2]): 950 nM
19 | 1600 nM | 1100 nM |  |  | CCC(c1ccc(OCC2CC2)cc1)N1C[C@H](C)N(c2cc(=O)n(C)c3ccc(C#N)nc23)C[C@H]1C (single isomer, unassigned) [Example 1440] |  | EC50 (Human venous whole blood; [1]): 2100 nM
20 | 110 nM | 140 nM |  |  | C[C@@H]1CN(c2cc(=O)n(C)c3ccc(C#N)nc23)[C@@H](C)CN1C(c1ccc(F)cc1)c1csc(C(F)(F)F)n1 (single isomer, unassigned) [Example 1334] | 260 nM | 
21 | 350 nM | 240 nM |  |  | CC[C@@H]1CN(c2cc(=O)n(C)c3ccc(C#N)nc23)[C@@H](C)CN1C(c1ccc(F)cc1)c1ccc(Cl)cc1 (stereo partly drawn) [Example 1101] | 230 nM | 
22 |  |  | 44 nM | 640 nM | C[C@@H]1CN(c2cc(=O)n(C)c3ccc(C#N)nc23)[C@@H](C)CN1C(c1ccc(F)cc1)c1cc(C2CC2)on1 (single isomer, unassigned) [Example 730] |  | EC50 (Human venous whole blood; [4]): 870 nM
23 | 4000 nM | 33000 nM |  |  | CC(c1ccc(C(F)(F)F)cc1)N1C[C@@H](C)N(c2cc(=O)n(C)c3ccc(C#N)nc23)C[C@@H]1C (single isomer, unassigned) [Example 345] | 6800 nM | 
24 | 270 nM | 160 nM |  |  | CC[C@@H]1CN(c2cc(=O)n(C)c3ccc(C#N)nc23)[C@@H](C)CN1C(c1ccc(F)cc1)c1nc(C2CC2)cs1 (single isomer, unassigned) [Example 1339] | 100 nM | 
25 | 200 nM | 1200 nM |  |  | CC(c1ccc(OC(F)(F)F)cc1)N1C[C@H](C)N(c2cc(=O)n(C)c3ccc(C#N)nc23)C[C@H]1CC#N (single isomer, unassigned) [Example 1411] |  | EC50 (Human venous whole blood; [1]): 2200 nM
26 | 49 nM | 48 nM |  |  | COCc1ccc(C(C)N2C[C@H](C)N(c3cc(=O)n(C)c4ccc(C#N)nc34)C[C@H]2C)cc1 (stereo partly drawn) [Example 1265] | 120 nM | 
27 |  |  | 760 nM | 700 nM | CC(C)c1nnc(C(c2ccc(F)cc2)N2C[C@H](C)N(c3cc(=O)n(C)c4ccc(C#N)nc34)C[C@H]2C)s1 (single isomer, unassigned) [Example 773] |  | EC50 (Human venous whole blood; [2]): 7900 nM
28 | 22000 nM | 3200 nM |  |  | C[C@@H]1CN(C(c2ccc(F)cc2)c2ccc(F)cc2)[C@@H](CO)CN1c1cc(=O)n(C)c2ccc(C#N)nc12 [Example 1172, 8-((2R,5R)-4-(bis(4-fluorophenyl)methyl)-5-(hydroxymethyl)-2-methylpiperazin-1-yl)-5-methyl-6-oxo-5,6-dihydro-1,5-naphthyridine-2-carbonitrile] |  | EC50 (Human venous whole blood; [1]): 420 nM
